From US8759480B2, “Contoxin analogues and methods for synthesis of intramolecular dicarba bridge-containing peptides” (Syngene Limited, priority 2006, dated 2014)

System: neuronal-type nicotinic receptors
Type: cell-based, bovine

CN1CCCC1c1cccnc1 (stereo not shown) [NICOTINE, nicotine, reference compound]
Adrenaline Release 1st: 4.31%
Adrenaline Release 2nd: 4.52%
Adrenaline Release 3rd: 4.52%
Adrenaline Release 4th: 4.48%
Adrenaline Release % control: 100.000%
Adrenaline Release mean: 4.46%
Noradrenaline Release 1st: 6.62%
Noradrenaline Release 2nd: 6.89%
Noradrenaline Release 3rd: 6.99%
Noradrenaline Release 4th: 6.89%
Noradrenaline Release % control: 100.000%
Noradrenaline Release mean: 6.85%
noradrenaline released, basal release (0.72%) subtracted: 6.13%
